The results in this text go back to ChEMBL document CHEMBL4706534, “1,2,3-Triazole-containing hybrids with potential antibacterial activity against methicillin-resistant Staphylococcus aureus (MRSA)” (Eur J Med Chem, 2020).

For assay [1], the system named is Staphylococcus aureus. Nature of the assay: Antibiofilm activity against methicillin-resistant Staphylococcus aureus ATCC BAA-44 incubated for 24 hrs by crystal violet-staining based assay. Type of assay: functional, organism-based. Particulars: ATCC BAA-44, 24 h.
For assay [2], the system named is Staphylococcus aureus. Nature of the assay: Potentiation of oxacillin-induced antibacterial activity against methicillin-resistant Staphylococcus aureus ATCC BAA-44 assessed as reduction in oxacillin MIC preincubated for 30 mins followed by oxacillin addition and measured after 16 hrs by broth microdilution method. It counts as functional. Conditions: time 16.5 hrs. Background: Broth dilution looks for growth in wells or tubes with falling amounts of substance.

Assay [3] relates to Staphylococcus aureus. Nature of the assay: Antibacterial activity against Methicillin-resistant Staphylococcus aureus ATCC 33591. Type of assay: functional, organism-based.

The structures appear in SMILES notation. pIC50: −log10 of the molar value. Values after ≈ are worked out from the molar mass of the structure shown.

In general, pIC50 refers to the IC50 on a negative log10 scale, so that one unit is a factor of ten. Low readings indicate a large IC50, high ones a small IC50. Molecule `C/C(=C/c1ccccc1)Cn1cc(CCCCCc2nc(N)[nH]c2-c2ccc(-c3ccccc3)cc2)nn1` had a pIC50 in the assay with Staphylococcus aureus [1] of 5.87. The “fold change (FC)” value in the assay on Staphylococcus aureus [2] turned out to be 2. The corresponding values for `C/C(=C/CC1CCCCC1)Cn1cc(CCCCCc2nc(N)[nH]c2-c2ccccc2)nn1` are 5.85 and 2. As usually defined, the MIC is the smallest concentration in the dilution series that meets the test's criterion for growth inhibition. In the assay on Staphylococcus aureus [3], `CN[C@H](CC(C)C)C(=O)N[C@@H]1Cc2ccc(c(Cl)c2)Oc2cc3cc(c2O[C@@H]2O[C@H](CO)[C@@H](O)[C@H](O)[C@H]2O[C@H]2C[C@](C)(N)[C@H](O)[C@H](C)O2)Oc2ccc(cc2Cl)[C@@H](O)[C@@H]2NC(=O)[C@H](NC(=O)[C@@H]3NC(=O)[C@H](CC(=O)O)NC1=O)c1ccc(O)c(c1)-c1c(O)cc(O)cc1[C@H](C(=O)NCCn1cc(CNC(=O)[C@@H]3NC(=O)[C@H]4NC(=O)[C@H](NC(=O)[C@@H]5NC(=O)[C@H](CC(=O)O)NC(=O)[C@H](NC(=O)[C@@H](CC(C)C)NC)Cc6ccc(c(Cl)c6)Oc6cc5cc(c6O[C@@H]5O[C@H](CO)[C@@H](O)[C@H](O)[C@H]5O[C@H]5C[C@](C)(N)[C@H](O)[C@H](C)O5)Oc5ccc(cc5Cl)[C@H]4O)c4ccc(O)c(c4)-c4c(O)cc(O)cc43)nn1)NC2=O` came in with an MIC of 1.3 µg/mL (≈ 0.437 µM).

For the molecule `C/C(=C/c1ccccc1)Cn1cc(CCCCCc2nc(N)[nH]c2-c2ccc(C(C)C)cc2)nn1`, in the assay with Staphylococcus aureus [1], the pIC50 is 5.87. For the same molecule, the “fold change (FC)” value with Staphylococcus aureus [2] worked out at 2. On the same counts, the results for `C/C(=C/c1ccccc1)Cn1cc(CCCCCc2nc(N)[nH]c2-c2ccc(F)cc2)nn1` are 5.87 and 2.

For `CN[C@H](CC(C)C)C(=O)N[C@@H]1Cc2ccc(c(Cl)c2)Oc2cc3cc(c2O[C@@H]2O[C@H](CO)[C@@H](O)[C@H](O)[C@H]2O[C@H]2C[C@](C)(N)[C@H](O)[C@H](C)O2)Oc2ccc(cc2Cl)[C@@H](O)[C@@H]2NC(=O)[C@H](NC(=O)[C@@H]3NC(=O)[C@H](CC(=O)O)NC1=O)c1ccc(O)c(c1)-c1c(O)cc(O)cc1[C@H](C(=O)NCCCCCc1cn(CCNC(=O)[C@@H]3NC(=O)[C@H]4NC(=O)[C@H](NC(=O)[C@@H]5NC(=O)[C@H](CC(=O)O)NC(=O)[C@H](NC(=O)[C@@H](CC(C)C)NC)Cc6ccc(c(Cl)c6)Oc6cc5cc(c6O[C@@H]5O[C@H](CO)[C@@H](O)[C@H](O)[C@H]5O[C@H]5C[C@](C)(N)[C@H](O)[C@H](C)O5)Oc5ccc(cc5Cl)[C@H]4O)c4ccc(O)c(c4)-c4c(O)cc(O)cc43)nn1)NC2=O`, the lowest concentration to inhibit growth against Staphylococcus aureus [3] (MIC) was 1.3 µg/mL (≈ 0.429 µM).

On to `CN[C@H](CC(C)C)C(=O)N[C@@H]1Cc2ccc(c(Cl)c2)Oc2cc3cc(c2O[C@@H]2O[C@H](CO)[C@@H](O)[C@H](O)[C@H]2O[C@H]2C[C@](C)(N)[C@H](O)[C@H](C)O2)Oc2ccc(cc2Cl)[C@@H](O)[C@@H]2NC(=O)[C@H](NC(=O)[C@@H]3NC(=O)[C@H](CC(=O)O)NC1=O)c1ccc(O)c(c1)-c1c(O)cc(O)cc1[C@H](C(=O)NCCCCCc1cn(CCCCNC(=O)[C@@H]3NC(=O)[C@H]4NC(=O)[C@H](NC(=O)[C@@H]5NC(=O)[C@H](CC(=O)O)NC(=O)[C@H](NC(=O)[C@@H](CC(C)C)NC)Cc6ccc(c(Cl)c6)Oc6cc5cc(c6O[C@@H]5O[C@H](CO)[C@@H](O)[C@H](O)[C@H]5O[C@H]5C[C@](C)(N)[C@H](O)[C@H](C)O5)Oc5ccc(cc5Cl)[C@H]4O)c4ccc(O)c(c4)-c4c(O)cc(O)cc43)nn1)NC2=O`, for which the minimum inhibitory concentration (MIC) in the assay with Staphylococcus aureus [3] is 1.3 µg/mL (≈ 0.425 µM). Same read-out and setting: to `CN[C@H](CC(C)C)C(=O)N[C@@H]1Cc2ccc(c(Cl)c2)Oc2cc3cc(c2O[C@@H]2O[C@H](CO)[C@@H](O)[C@H](O)[C@H]2O[C@H]2C[C@](C)(N)[C@H](O)[C@H](C)O2)Oc2ccc(cc2Cl)[C@@H](O)[C@@H]2NC(=O)[C@H](NC(=O)[C@@H]3NC(=O)[C@H](CC(=O)O)NC1=O)c1ccc(O)c(c1)-c1c(O)cc(O)cc1[C@H](C(=O)NCCc1cn(CCNC(=O)[C@@H]3NC(=O)[C@H]4NC(=O)[C@H](NC(=O)[C@@H]5NC(=O)[C@H](CC(=O)O)NC(=O)[C@H](NC(=O)[C@@H](CC(C)C)NC)Cc6ccc(c(Cl)c6)Oc6cc5cc(c6O[C@@H]5O[C@H](CO)[C@@H](O)[C@H](O)[C@H]5O[C@H]5C[C@](C)(N)[C@H](O)[C@H](C)O5)Oc5ccc(cc5Cl)[C@H]4O)c4ccc(O)c(c4)-c4c(O)cc(O)cc43)nn1)NC2=O` belongs 1.3 µg/mL (≈ 0.435 µM). Still for that read-out and setting: the value for `CN[C@H](CC(C)C)C(=O)N[C@@H]1Cc2ccc(c(Cl)c2)Oc2cc3cc(c2O[C@@H]2O[C@H](CO)[C@@H](O)[C@H](O)[C@H]2O[C@H]2C[C@](C)(N)[C@H](O)[C@H](C)O2)Oc2ccc(cc2Cl)[C@@H](O)[C@@H]2NC(=O)[C@H](NC(=O)[C@@H]3NC(=O)[C@H](CC(=O)O)NC1=O)c1ccc(O)c(c1)-c1c(O)cc(O)cc1[C@H](C(=O)NCCCCCCn1cc(CCCNC(=O)[C@@H]3NC(=O)[C@H]4NC(=O)[C@H](NC(=O)[C@@H]5NC(=O)[C@H](CC(=O)O)NC(=O)[C@H](NC(=O)[C@@H](CC(C)C)NC)Cc6ccc(c(Cl)c6)Oc6cc5cc(c6O[C@@H]5O[C@H](CO)[C@@H](O)[C@H](O)[C@H]5O[C@H]5C[C@](C)(N)[C@H](O)[C@H](C)O5)Oc5ccc(cc5Cl)[C@H]4O)c4ccc(O)c(c4)-c4c(O)cc(O)cc43)nn1)NC2=O` was 1.3 µg/mL (≈ 0.425 µM). Take `C/C(=C/c1ccccc1)Cn1cc(CCCCCc2nc(N)[nH]c2-c2cc(F)cc(F)c2)nn1`: in the assay on Staphylococcus aureus [1], the pIC50 was 5.87. Also, the “fold change (FC)” value in the assay on Staphylococcus aureus [2] is given as 2. In the assay with Staphylococcus aureus [3], `CN[C@H](CC(C)C)C(=O)N[C@@H]1Cc2ccc(c(Cl)c2)Oc2cc3cc(c2O[C@@H]2O[C@H](CO)[C@@H](O)[C@H](O)[C@H]2O[C@H]2C[C@](C)(N)[C@H](O)[C@H](C)O2)Oc2ccc(cc2Cl)[C@@H](O)[C@@H]2NC(=O)[C@H](NC(=O)[C@@H]3NC(=O)[C@H](CC(=O)O)NC1=O)c1ccc(O)c(c1)-c1c(O)cc(O)cc1[C@H](C(=O)NCCCCCc1cn(CCCCCNC(=O)[C@@H]3NC(=O)[C@H]4NC(=O)[C@H](NC(=O)[C@@H]5NC(=O)[C@H](CC(=O)O)NC(=O)[C@H](NC(=O)[C@@H](CC(C)C)NC)Cc6ccc(c(Cl)c6)Oc6cc5cc(c6O[C@@H]5O[C@H](CO)[C@@H](O)[C@H](O)[C@H]5O[C@H]5C[C@](C)(N)[C@H](O)[C@H](C)O5)Oc5ccc(cc5Cl)[C@H]4O)c4ccc(O)c(c4)-c4c(O)cc(O)cc43)nn1)NC2=O` gave an MIC of 1.3 µg/mL (≈ 0.423 µM). The same measure, in the same setting: to `CN[C@H](CC(C)C)C(=O)N[C@@H]1Cc2ccc(c(Cl)c2)Oc2cc3cc(c2O[C@@H]2O[C@H](CO)[C@@H](O)[C@H](O)[C@H]2O[C@H]2C[C@](C)(N)[C@H](O)[C@H](C)O2)Oc2ccc(cc2Cl)[C@@H](O)[C@@H]2NC(=O)[C@H](NC(=O)[C@@H]3NC(=O)[C@H](CC(=O)O)NC1=O)c1ccc(O)c(c1)-c1c(O)cc(O)cc1[C@H](C(=O)NCCCn1cc(CNC(=O)[C@@H]3NC(=O)[C@H]4NC(=O)[C@H](NC(=O)[C@@H]5NC(=O)[C@H](CC(=O)O)NC(=O)[C@H](NC(=O)[C@@H](CC(C)C)NC)Cc6ccc(c(Cl)c6)Oc6cc5cc(c6O[C@@H]5O[C@H](CO)[C@@H](O)[C@H](O)[C@H]5O[C@H]5C[C@](C)(N)[C@H](O)[C@H](C)O5)Oc5ccc(cc5Cl)[C@H]4O)c4ccc(O)c(c4)-c4c(O)cc(O)cc43)nn1)NC2=O` belongs 1.3 µg/mL (≈ 0.435 µM). `CCCc1ccc(/C=C(/C)Cn2cc(CCCCCc3nc(N)[nH]c3-c3ccccc3)nn2)cc1`: the pIC50 with Staphylococcus aureus [1] was 5.85. Further, the “fold change (FC)” value in the assay on Staphylococcus aureus [2] amounted to 2.

Consider `CCCCCCCCCCCC/C=C(/C)Cn1cc(CCCCCc2nc(N)[nH]c2-c2ccccc2)nn1`, for which the pIC50 with Staphylococcus aureus [1] is 5.85. Also, the “fold change (FC)” value in the assay with Staphylococcus aureus [2] worked out at 2.
